In brackets after ≈: the same amount, converted by molar mass.
Legend:
[1] = physchem; type: physicochemical; settings: pH 2, aqueous buffer
[2] = Phase-1 first-in-human trial, pharmacokinetics; type: in vivo
Description: A randomized, double-blind, placebo controlled trial was designed to evaluate the safety/tolerability, pharmacokinetics and antiviral activity of single (in Part A) and multiple (in Part B) doses of Compound (1) (oleic acid solution, above) in subjects chronically infected with HCV genotype 1 (GT-1) without decompensated cirrhosis.
In completed Part A, five successive cohorts of 6 subjects were randomized (5:1) to receive single ascending doses of Compound 1 (40, 120, 240, 240-with food, or 480 mg) or placebo. In ongoing Part B, four successive cohorts of 12 subjects are randomized (10:2) to receive multiple ascending doses of Compound 1 (40 mg BID, 120 mg BID, 240 mg QD, 240 mg BID) or placebo, over 8 days.

[3] = parameters: species or system human; settings: in vivo
[4] = test system: HCV genotype 1 (Con-1/lucneo) replicon; type: cell-based; settings: 3 days, absence of HSA
Method: HCV genotype 1 (Con-1/lucneo) and 1a (H77/neo) replicon cells were incubated with serial dilutions of compound (1) 2′C-methyl adenosine (2′CMeA) or IFNα for 3 days in the absence or presence of 40 mg/mL human serum albumin (HSA).

| Compound | solubility [1] [µg/mL] | mean concentration 24 hours after dosing relative to protein binding adjusted in vitro HCV GT-1 replicon EC50 ([2]; 240 mg fasted single dose) [fold] | increase in systemic exposure with a high fat meal ([2]; single dose 240 mg with food vs fasted) | tolerability of single doses [3] | EC50 HCV 1-lucneo [4] [IU/mL] |
| --- | --- | --- | --- | --- | --- |
| Fc1ccccc1-c1nc2ccn(Cc3ccc(-c4ccc(C(F)(F)F)cc4C(F)(F)F)nn3)cc-2n1 [Compound 1, 5-((6-(2,4-Bis(trifluoromethyl)phenyl]pyridazin-3-yl)methyl)-2-(2-fluorophenyl)-5H-imidazo[4,5-c]pyridine] | 458 (≈ 885 µM) | ~7 | approximately 2 fold | well tolerated, with no serious or treatment-limiting adverse events (AEs) reported |  |
| IFN-α |  |  |  |  | 2 |
